According to patent publication US20160206623A9, “Composition For Prevention of Vasoactivity in the Treatment of Blood Loss and Anemia” (priority 2012, published 2016):

Tested on: segments of the rat thoracic aorta (RTA)
Assay: Vasoactivity (isometric tension) of rat thoracic aorta rings in tissue bath

COc1ccc([C@@H]2Sc3ccccc3N(CCN(C)C)C(=O)[C@@H]2OC(C)=O)cc1 [DLT, Diltiazam]
vasoconstriction with HES + PHE (HES 4.4 uM + PHE, DLT 10^-7 to 10^-5 M (FIG. 8, a2-d2)): the vasoconstriction is reduced
effect on PHE induced vasoconstriction (PHE without hemoglobin, different concentrations of additive (DLT 10^-7 to 10^-5 M)): reduces the vasoconstrictive effect of PHE

CNC[C@H](O)c1cccc(O)c1 [PHE, Phenylephrine]
tension of the RTA (PHE added after SFH, preliminary experiments): increase the tension of the RTA significantly

COc1cc2nc(N3CCN(C(=O)C4CCCO4)CC3)nc(N)c2cc1OC (stereo not shown) [TER, Terazosin]
vasoconstrictive effect of SFH (terazosin suboptimal 10^-8 M, SFH+PHE (FIG. 9)): reduces the vasoconstrictive effect of SFH
